# Measured values taken from paper PMC8284473, “Preliminary Characterization of NP339, a Novel Polyarginine Peptide with Broad Antifungal Activity” (Antimicrobial Agents and Chemotherapy, 2021).
# How the values were obtained:
# human PBMCs = experiment: NP339 cytotoxicity, LIVE/DEAD staining; format: cell-based; conditions: human PBMCs 5 × 10^5 cells/well, 2 h, 37°C, RPMI 1640; concentrations hundreds of folds above antifungal; n = 2
# Method: PBMCs were isolated from fresh human whole blood using Leucosep tubes (Greiner Bio-One), according to the manufacturer’s instructions. The cells were suspended in RPMI 1640 medium (5 × 10^6 cells/ml) and transferred to 96-well plate (5 × 10^5 cells/well). NP339 solutions were prepared in prewarmed RPMI 1640 medium and added to the cell suspension. The plates were incubated at 37°C under 5% CO2 for 2 h. Toxicity was determined using the Molecular Probes LIVE/DEAD Viability/Cytotoxicity kit (Fisher Scientific UK, Ltd.). As the kill control, 0.1% (vol/vol) Triton X-100 was used. Untreated cells were the live control.
# [1] = Tolerability in mouse models of infection; format: in vivo; conditions: at the therapeutic doses and duration of therapy used
# Method: In all experiments, the animals were housed 4 or 5/cage in sterilized individual ventilated cages exposing the mice at all times to HEPA-filtered sterile air. Food and water were available ad libitum, and sterile aspen chip bedding was changed at least once weekly. The room temperature was 22 ± 1°C, with a relative humidity of 60% and maximum background noise of 56 dB. Mice were exposed to 12-h light/dark cycles. Before the experiments, the animals were randomly divided into groups. After the experiments, the animals were sacrificed by humane euthanasia by delivering 0.5 ml of 200 mg/ml pentobarbital solution via intraperitoneal injection. For quantification of fungal burden, samples were diluted appropriately and then quantitatively cultured on to SAB containing 0.05 mg/ml chloramphenicol and incubated at 37°C for 24 to 48 h before enumeration.
# Male CD1 mice (n = 24 mice, 6 to 8 weeks of age, average weight of 23.5 g) were obtained from Charles River, Margate, United Kingdom. […] The mice were culled 29 h postinfection, and fungal kidney burdens were determined by plating as previously described.
# Female BALB/c mice (n = 24 mice, 6 to 8 weeks of age, weight of 16 to 18 g) were obtained from Charles River, Margate, United Kingdom. […] At 3 days postinfection, fungal burdens in vaginal lavage samples were determined as described above. […]
# human whole blood = human whole blood exposed to the peptide; data not shown
# [2] = system: A549 epithelial lung cell line; experiment: NP339 cytotoxicity, LIVE/DEAD staining; format: cell-based, human; conditions: A549 monolayer, 3 h, 37°C, RPMI 1640; concentrations hundreds of folds above antifungal; n = 2
# Method: Lung epithelial cells (A549 cells; ATCC [distributed by LGC Promochem, Teddington, United Kingdom]) were cultured in a 96-well plate in Ham’s F-12K medium (Fisher Scientific UK, Ltd.) supplemented with 10% (vol/vol) fetal bovine serum. The cells were incubated under 5% CO2 at 37°C until 90% confluent. NP339 solutions and 0.25% SDS (the kill control) were prepared in prewarmed RPMI 1640 medium. Once the cells reached 90% confluence, the culture medium was removed from the 96-well plate, taking care not to disturb the cells, and 100 μl of NP339 solution was added to the cell monolayer. The plates were incubated at 37°C under 5% CO2 for 3 h. Toxicity was determined using the Molecular Probes LIVE/DEAD Viability/Cytotoxicity kit, as per the manufacturer’s instructions. As the kill control, 0.25% (wt/vol) SDS was used. Untreated cells were the live control (cells incubated with the medium).
structure (smiles),measurement,setting,value
N=C(N)NCCC[C@H](NC(=O)[C@H](CCCNC(=N)N)NC(=O)[C@H](CCCNC(=N)N)NC(=O)[C@H](CCCNC(=N)N)NC(=O)[C@H](CCCNC(=N)N)NC(=O)[C@H](CCCNC(=N)N)NC(=O)[C@H](CCCNC(=N)N)NC(=O)[C@H](CCCNC(=N)N)NC(=O)[C@H](CCCNC(=N)N)NC(=O)[C@H](CCCNC(=N)N)NC(=O)[C@H](CCCNC(=N)N)NC(=O)[C@H](CCCNC(=N)N)NC(=O)[C@@H](N)CCCNC(=N)N)C(=O)O [NP339],Cytotoxicity (live/dead cell ratio),human PBMCs,not toxic
same,Tolerability,[1],well tolerated
same,Nonspecific immune response (cytokine measurements),human whole blood,did not elicit a nonspecific immune response
same,Cytotoxicity (live/dead cell ratio),[2],not toxic
